For 25 compounds, IC50 results are on record in patent publication US12012398B2, “Bicyclic compounds as androgen receptor modulators” (NIDO BIOSCIENCES, INC., priority 2021, dated 2024).

The test system of this assay is LNCaP cells expressing ARR2PB-FireflyLuc and CMV-RenillaLuc. The experiment in a line: LNCaP ARR2PB-FireflyLuc reporter assay, antagonist mode. Type of assay: cell-based. The settings on record: Homo sapiens, LNCaP, 48 h, +0.5 nM DHT, 48 h at 37° C., read-out: LNCap Antagonist Archive: IC50. Put shortly:
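LNCaP cells carrying ARR2PB-firefly and CMV-Renilla luciferase reporters were exposed to compound with 0.5 nM DHT for 48 h at 37° C. Remaining activity was scaled between 0.5 nM DHT alone (high) and 10 uM enzalutamide + 0.5 nM DHT (low). IC50 from non-linear regression, reported in bins A–D.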
As to `COCCNC(=O)c1cc2ccc(F)cc2n1-c1ccc(Cl)cn1` [Example 53, 1-(5-chloropyridin-2-yl)-6-fluoro-N-(2-methoxyethyl)-1H-indole-2-carboxamide], the IC50 is over 10 µM.
Regarding `O=C(NC12CC(F)(C1)C2)c1cc2ccnc(Cl)c2[nH]1` [Example 99, 7-chloro-N-[3-fluorobicyclo[1.1.1]pentan-1-yl]-1H-pyrrolo[2,3-c]pyridine-2-carboxamide], the IC50 is 1 to 10 µM.
Consider `Cn1c(C(=O)NC(C)(C)C)cc2ccnc(Cl)c21` [Example 148, N-tert-butyl-7-chloro-1-methylpyrrolo[2,3-c]pyridine-2-carboxamide], for which the IC50 lay in the range of 0.1 to 1 µM.
Consider `CN(C(=O)c1cc2cccc(Cl)c2[nH]1)C1CCCOC1` (stereo not shown) [Example 73, 7-chloro-N-methyl-N-(oxan-3-yl)-1H-indole-2-carboxamide], for which the IC50 was over 10 µM.
With `CN(C(=O)c1cc2ccc(F)cc2o1)c1ccccc1` [Example 24, 6-fluoro-N-methyl-N-phenyl-1-benzofuran-2-carboxamide] the figure was 1 to 10 µM; with `COCCN(C(=O)c1cc2ccc(F)cc2[nH]1)c1cnn(C)c1` [Example 49, 6-fluoro-N-(2-methoxyethyl)-N-(1-methylpyrazol-4-yl)-1H-indole-2-carboxamide], over 10 µM.
For the compound `CN(C(=O)c1cc2ccnc(OC3CC3)c2[nH]1)C12CC(F)(C1)C2` [Example 126, 7-cyclopropoxy-N-{3-fluorobicyclo[1.1.1]pentan-1-yl}-N-methyl-1H-pyrrolo[2,3-c]pyridine-2-carboxamide], the IC50 was over 10 µM.
With `O=C(c1cc2cccc(Cl)c2[nH]1)N1CCCC1` [Example 71, 7-chloro-2-(pyrrolidine-1-carbonyl)-1H-indole] the figure was over 10 µM.
The figure for `CN(C(=O)c1cc2ccnc(Cl)c2[nH]1)C12CC(C1)C2` [Example 95, N-[bicyclo[1.1.1]pentan-1-yl]-7-chloro-N-methyl-1H-pyrrolo[2,3-c]pyridine-2-carboxamide] is 0.1 to 1 µM; for `COCCN(C(=O)c1cc2cccc(Cl)c2[nH]1)c1ccc(C#N)cc1C` [Example 77, 7-chloro-N-(4-cyano-2-methylphenyl)-N-(2-methoxyethyl)-1H-indole-2-carboxamide] it is over 10 µM.
The figure for `COCCN(C(=O)c1cc2ccc(F)cc2[nH]1)c1ccc(C#N)cc1` [Example 51, N-(4-cyanophenyl)-6-fluoro-N-(2-methoxyethyl)-1H-indole-2-carboxamide] is 1 to 10 µM; for `CN(C(=O)c1cc2cccc(Cl)c2[nH]1)C1CCOC(C)(C)C1` (stereo not shown) [Example 74, 7-chloro-N-(2,2-dimethyloxan-4-yl)-N-methyl-1H-indole-2-carboxamide] it is 1 to 10 µM.
Consider `CC(C)N(Cc1ccncc1)C(=O)c1cc2ccc(F)cc2[nH]1` [Example 10, 6-fluoro-N-isopropyl-N-(pyridin-4-ylmethyl)-1H-indole-2-carboxamide], for which the IC50 is 1 to 10 µM.
Consider `COCCN(C(=O)c1cc2ccc(F)cc2[nH]1)c1ccccc1` [Example 12, 6-fluoro-N-(2-methoxyethyl)-N-phenyl-1H-indole-2-carboxamide], for which the IC50 was 1 to 10 µM.
Consider `Cc1nc(-c2c(C(=O)N(Cc3ccco3)C(C)C)[nH]c3cc(F)ccc23)ccc1N` [Example 1, 3-(5-amino-6-methylpyridin-2-yl)-6-fluoro-N-(furan-2-ylmethyl)-N-isopropyl-1H-indole-2-carboxamide], for which the IC50 is over 10 µM.
The figure for `COCCN(C(=O)c1cc2ccc(F)cc2[nH]1)c1ccc(C#N)cn1` [Example 159] is 1 to 10 µM; for `CNc1nccc2cc(C(=O)NC34CC(F)(C3)C4)n(C)c12` [Example 124, N-{3-fluorobicyclo[1.1.1]pentan-1-yl}-1-methyl-7-(methylamino)pyrrolo[2,3-c]pyridine-2-carboxamide] it is over 10 µM.
The figure for `CN(C(=O)c1[nH]c2ccccc2c1Cl)c1ccccc1` [Example 22, 3-chloro-N-methyl-N-phenyl-1H-indole-2-carboxamide] is over 10 µM; for `O=C(NC12CC(C1)C2)c1cc2cccc(Cl)c2[nH]1` [Example 89, N-[bicyclo[1.1.1]pentan-1-yl]-7-chloro-1H-indole-2-carboxamide] it is 0.1 to 1 µM.
As to `Cn1c(C(=O)NC23CC(C)(C2)C3)cc2ccnc(Cl)c21` [Example 142, 7-chloro-1-methyl-N-{3-methylbicyclo[1.1.1]pentan-1-yl}pyrrolo[2,3-c]pyridine-2-carboxamide], the IC50 was 1 to 10 µM.
The figure for `CC(C)N(C)C(=O)c1cc2ccnc(Cl)c2n1C` [Example 134, 7-chloro-N-isopropyl-N,1-dimethylpyrrolo[2,3-c]pyridine-2-carboxamide] is 0.1 to 1 µM; for `CN(C(=O)c1nc2ccc(F)cc2[nH]1)c1ccccc1` [Example 23, 5-fluoro-N-methyl-N-phenyl-3H-1,3-benzodiazole-2-carboxamide] it is over 10 µM.
With `O=C(NC12CC(C1)C2)c1[nH]c2c(Cl)cccc2c1Cl` [Example 106, N-[bicyclo[1.1.1]pentan-1-yl]-3,7-dichloro-1H-indole-2-carboxamide] the figure was 1 to 10 µM; with `CN(C(=O)c1cc2ccnc(Cl)c2[nH]1)C1CC(F)(F)C1` [Example 101, 7-chloro-N-(3,3-difluorocyclobutyl)-N-methyl-1H-pyrrolo[2,3-c]pyridine-2-carboxamide], 1 to 10 µM.
Regarding `CC(C)N1CCC(N(C)C(=O)c2cc3cccc(Cl)c3[nH]2)CC1` [Example 45, 7-chloro-N-(1-isopropylpiperidin-4-yl)-N-methyl-1H-indole-2-carboxamide], the IC50 is over 10 µM.
